Structures can show the parent of a compound that is named as a salt. Some results are limits rather than exact numbers.

Experiment [1] deals with AGS. Put plainly: CellTiter-Glo Reagent cancer cell line proliferation assay, AGS. It is filed as cell-based, human. The conditions noted are these: Homo sapiens, 24 h, KRAS(G12D) heterozygous. In outline:
(§1)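 Cells were seeded at 4,000 per well, grown 24 hr at 37° C./5% CO2, then exposed 24 hr to 3-fold dilutions from 20 μM to 1.02 nM (0.5% DMSO final). Viability was read with CellTiter-Glo luminescence, and IC50 values were calculated.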
(In general: In ATP-based viability assays light output follows the ATP content of the culture.)

Experiment [2] deals with GP2D. Kind of experiment: CellTiter-Glo Reagent cancer cell line proliferation assay, GP2D. It is filed as cell-based. To be noted: Homo sapiens, KRAS(G12D) heterozygous, 24 hr. An outline of the steps:
as §1

Experiment [3] has as its target T1, KRAS(G12D) (Homo sapiens, UniProt P01116, G12D). Put plainly: KRAS Western Blot Protein Degradation Assay, GP2D. The class given is cell-based. Details: Cell lines SW1990 and GP2D that express KRAS(G12D); host or cells: GP2D. The conditions noted are these: for Dmax: GP2d, read-out: WB data GP2D DMax; for DC50: read-out: WB data GP2D DC50, GP2D, KRAS degradation, 24 hr. The text has this:
(§2) The following cancer cell lines were employed: • AsPC-1 human pancreatic adenocarcinoma, homozygous KRAS(G12D), (ATCC, #CRL-1682); A-427 human lung carcinoma, heterozygous KRAS(G12D), (ATCC, #HTB-53); AGS human gastric adenocarcinoma, heterozygous KRAS(G12D), (ATCC, #CRL-1739); GP2D human colon adenocarcinoma, heterozygous KRAS(G12D), (Sigma Aldrich, 95090714); SW1990 human pancreatic adenocarcinoma, homozygous KRAS(G12D), (ATCC, #CRL2172); LU65A human lung giant cell carcinoma, heterozygous KRAS(G12C), (JCRB Cell Bank, #JCRB0054); NCIH727 human lung carcinoid, heterozygous KRAS(G12V), (ATCC, #CRL-5815); MKN1 human gastric adenosquamous carcinoma KRAS (wt), (JCRB Cell Bank, #JCRB0252). Cell lines were cultured according to ATCC, JCRB and Sigma Aldrich recommendations.
(§3) Cell lines SW1990 and GP2D that express KRAS(G12D), LU65A that expresses KRAS(G12C), and NCIH727 that expresses KRAS(G12V) were seeded in 6- or 12-well tissue culture plates, and after 1 hr, test compounds were added at various concentrations and incubated at 37° C./5% CO2 for 24 hr. Cells were then washed with cold PBS, aspirated and cold RIPA buffer containing a protease/phosphatase inhibitor cocktail was added to lyse cells. After centrifugation, the total protein concentrations of cell lysates were determined using the BCA protein assay. Samples were normalized for equivalent protein concentrations, 5× SDS-PAGE loading buffer added and denatured at 100° C. for 10 min. 20 μl of each sample/well was loaded on a SDS-PAGE gel and electrophoresed for 20 min at 80 V, then 120 V for 1.5 hr. Gels were then electroblotted to nitrocellulose membranes using a wet-transfer method at 250 mA for 2.5 hr. Membranes were incubated with blocking buffer for 1 hr and washed 3 times with TBST for 5 min. Membranes were then incubated with anti-KRAS (Sigma-Aldrich, #SAB1404011) and anti-β-Actin monoclonal antibodies (Cell Signaling Technology, #3700) diluted in blocking buffer at 4° C. overnight per the manufacturer's recommendations. After washing 3 times, blots were incubated with appropriately labeled secondary antibodies for 1 hr at room temperature and washed again. Fluorescence imaging and quantitation was performed using a LI-COR Odyssey. Results was analyzed using GraphPad Prism 7 software. Compound concentrations that induced KRAS degradation (DC50 and DCmax) were calculated using GraphPad Prism 7 software.
(A western blot detects proteins with antibodies after separation by electrophoresis.)
Target sequence in this assay (P01116 1-185 isoform P01116-2 G12D limits assumed): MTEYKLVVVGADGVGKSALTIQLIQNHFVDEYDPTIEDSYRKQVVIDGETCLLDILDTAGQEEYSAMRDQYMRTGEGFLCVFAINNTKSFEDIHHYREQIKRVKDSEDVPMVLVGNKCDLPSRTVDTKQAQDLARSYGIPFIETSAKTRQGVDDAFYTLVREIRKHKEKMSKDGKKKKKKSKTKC

Experiment [4] relates to SW1990. Kind of experiment: CellTiter-Glo Reagent cancer cell line proliferation assay, SW1990. The class given is cell-based. To be noted: Homo sapiens; SW1990, KRAS(G12D) homozygous, 24 hr.
Source text: as §2
(§4) Cells were plated in 96-well tissue culture plates at 4,000 cells/well and incubated at 37° C./5% CO2 for 24 hr in 100 μl of media. 3-fold serial dilutions of each test compound were prepared ranging from 20 μM to 1.02 nM. Cells were then treated with test compounds at various concentrations with a final concentration of 0.5% DMSO/well, and then incubated at 37° C./5% CO2 for 24 hr. 100 μl of CellTiter-Glo® Reagent (Promega Corporation, Madison, WI) was added to each well and processed according manufacturer's protocol. Results were analyzed and IC50-values were calculated in GraphPad 7 software.

For experiment [5], the target named is T1, KRAS(G12D). Put plainly: cell-based. The conditions noted are these: for Dmax: SW1990, read-out: WB data SW1990 DMax; for DC50: read-out: WB data SW1990 DC50, SW1990, KRAS degradation, 24 hr. Details: Cell lines SW1990 and GP2D that express KRAS(G12D); host or cells: SW1990. The class given is cell-based. The method, then:
Cell lines were cultured according to ATCC, JCRB and Sigma Aldrich recommendations.
as §3, with “Cells” for “Cell lines SW1990 and GP2D that express KRAS(G12D), LU65A that expresses KRAS(G12C), and NCIH727 that expresses KRAS(G12V) were seeded in 6- or 12-well tissue culture plates, and after 1 hr, test compounds were added at various concentrations and incubated at 37° C./5% CO2 for 24 hr. Cells”
Target sequence in this assay (P01116 1-188 isoform P01116-2 G12D): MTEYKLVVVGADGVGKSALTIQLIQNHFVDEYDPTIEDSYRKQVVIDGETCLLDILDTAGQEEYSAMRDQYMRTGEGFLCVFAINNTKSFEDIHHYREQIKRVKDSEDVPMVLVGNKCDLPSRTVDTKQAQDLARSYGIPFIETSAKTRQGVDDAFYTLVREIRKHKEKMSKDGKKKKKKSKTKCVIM

Experiment [6] relates to A427. Put plainly: CellTiter-Glo Reagent cancer cell line proliferation assay, A427. The conditions noted are these: Homo sapiens, A-427; A427, KRAS(G12D) heterozygous, 24 hr. It is filed as cell-based.
Source text: as §2, §4

Experiment [7] relates to ASPC-1. Put plainly: CellTiter-Glo Reagent cancer cell line proliferation assay, ASPC-1. The conditions noted are these: Homo sapiens, ASPC1; ASPC-1, KRAS(G12D) homozygous, 24 hr. It is filed as cell-based.
Source text: as §2, §4

Usually IC50 stands for the point on the concentration scale where inhibition reaches its midpoint. A higher IC50 goes with lower potency. A word on the DC50: it is the midpoint of the concentration-degradation curve. On to `[2H]C([2H])([2H])Oc1nc(-c2cc(O)cc3ccc(F)c(C#C)c23)c(F)c2nc(OCC3(CN4CCN(CC5CCN(c6ccc7c(c6)CN(C6CCC(=O)NC6=O)C7=O)CC5)CC4)CC3)nc(N3CC4CCC(C3)N4CC(F)(F)F)c12` (stereo not drawn) [Compound 97], for which the 50% inhibitory concentration (IC50) in experiment [1] lay within 100 to 1000 nM. The compound also had an IC50 in experiment [2] of 100 to 1000 nM. In experiment [3], the Dmax was in the range of 10 to 50% and the DC50 was above 1000 nM.

In the case of `C#Cc1c(F)ccc2cc(O)cc(-c3ncc4c(N5CC6CCC(C5)N6)nc(OCC5(CN6CCN(CC#Cc7ccc8c(c7)CN(C7CCC(=O)NC7=O)C8=O)CC6)CC5)nc4c3F)c12` (stereo not drawn) [Compound 89], the results for the IC50 in experiment [1], in experiment [4] and in experiment [2] were below 100 nM, 100 to 1000 nM and below 100 nM, respectively. Also, the Dmax in experiment [5] lay in the range of 10 to 50%. In addition, in experiment [5], the DC50 was above 1000 nM.

In turn, `C#Cc1c(F)ccc2cc(O)cc(-c3ncc4c(N5CC6CCC(C5)N6C(=O)C(F)(F)F)nc(OCC5(CN6CCN(CC7CCN(c8ccc9c(c8)CN(C8CCC(=O)NC8=O)C9=O)CC7)CC6)CC5)nc4c3F)c12` (stereo not drawn) [Compound 78] displayed an IC50 in experiment [4] below 100 nM. Also, in experiment [5], the Dmax is 10 to 50% and the DC50 fell in the range of 100 to 1000 nM.

Turning to `[2H]C([2H])([2H])Oc1nc(-c2cc(O)cc3ccc(F)c(C#C)c23)c(F)c2nc(OCC3(CN4CCN(CC5CCN(c6ccc7c(c6)CN(C6CCC(=O)NC6=O)C7=O)CC5)CC4)CC3)nc(N3CC4CCC(C3)N4CC(C)C)c12` (stereo not drawn) [Compound 96], the IC50 in experiment [1] was above 1000 nM. The compound further yielded an IC50 in experiment [2] of 100 to 1000 nM. In experiment [3], the Dmax fell in the range of 10 to 50% and the DC50 is above 1000 nM.

In turn, `O=CO.[2H]C([2H])([2H])Oc1nc(-c2cc(O)cc3ccc(F)c(C#C)c23)c(F)c2nc(OCC3(CN4CCN(CC5CCN(c6ccc7c(c6)CN(C6CCC(=O)NC6=O)C7=O)CC5)CC4)CC3)nc(N3CC4CCC(C3)N4CCC#N)c12` (stereo not drawn) [Compound 95] returned a half-maximal inhibitory concentration (IC50) in experiment [1] of 100 to 1000 nM. Besides, the IC50 in experiment [2] is below 100 nM. Moreover, in experiment [3], the Dmax is below 10% and the DC50 is above 1000 nM.

As for `C#Cc1c(F)ccc2cc(O)cc(-c3ncc4c(N5CC6CCC(C5)N6CC#N)nc(OCC5(CN6CCN(CC7CCN(c8ccc9c(c8)CN(C8CCC(=O)NC8=O)C9=O)CC7)CC6)CC5)nc4c3F)c12` (stereo not drawn) [Compound 101], the IC50 in experiment [1] was below 100 nM. In experiment [2], this compound had an IC50 below 100 nM. Also, in experiment [3], the Dmax is above 50% and the DC50 was below 100 nM.

For the compound `O=CO.[2H]C([2H])([2H])Oc1nc(-c2cc(O)cc3ccc(F)c(C#C)c23)c(F)c2nc(OCC3(CN4CCN(CC5CCN(c6ccc7c(c6)CN(C6CCC(=O)NC6=O)C7=O)CC5)CC4)CC3)nc(N3CC4CCC(C3)N4CCO)c12` (stereo not drawn) [Compound 98], the IC50 in experiment [1] and in experiment [2] was below 100 nM each time. The Dmax in experiment [3] was above 50%. Besides, the DC50 in experiment [3] was below 100 nM.

In the case of `C#Cc1c(F)ccc2cc(O)cc(-c3ncc4c(N5C[C@H]6CC[C@@H](C5)N6)nc(OCC5(CN6CC(C#Cc7ccc8c(c7)CN(C7CCC(=O)NC7=O)C8=O)C6)CC5)nc4c3F)c12` (stereo partly drawn) [Compound 90, 3-(5-((1-((1-(((4-((1R,5S)-3,8-diazabicyclo[3.2.1]octan-3-yl)-7-(8-ethynyl-7-fluoro-3-hydroxynaphthalen-1-yl)-8-fluoropyrido[4,3-d]pyrimidin-2-yl)oxy)methyl)cyclopropyl)methyl)azetidin-3-yl)ethynyl)-1-oxoisoindolin-2-yl) piperidine-2,6-dione formate], the IC50 in experiment [1], in experiment [4] and in experiment [2] was below 100 nM in each case. In addition, the Dmax in experiment [5] was 10 to 50%. Moreover, in experiment [5], the DC50 is above 1000 nM.

On to `O=CO.[2H]C([2H])([2H])Oc1nc(-c2cc(O)cc3ccc(F)c(C#C)c23)c(F)c2nc(OCC3(CN4CCN(CC5CCN(c6ccc7c(c6)CN(C6CCC(=O)NC6=O)C7=O)CC5)CC4)CC3)nc(N3CC4CCC(C3)N4CC#N)c12` (stereo not drawn) [Compound 94], for which the IC50 in experiment [1] was below 100 nM. This compound yielded an IC50 in experiment [2] below 100 nM. Also, in experiment [3], the Dmax was above 50% and the DC50 was below 100 nM.

Take `C#Cc1c(F)ccc2cc(O)cc(-c3ncc4c(N5CC6CCC(C5)N6)nc(OCC5(CN6CCN(CC7CCN(c8ccc9c(=O)n(C%10CCC(=O)NC%10=O)ncc9c8)CC7)CC6)CC5)nc4c3F)c12` (stereo not drawn) [Compound 88]: the IC50 in experiment [1], in experiment [4] and in experiment [2] was below 100 nM each time. For the same compound, the Dmax in experiment [5] fell in the range of 10 to 50%. In addition, the DC50 in experiment [5] is above 1000 nM.

With `O=C1CCC(N2C(=O)c3ccc(CN4CCN([C@H]5CN6CCCC6(COc6nc(N7CC8CCC(C7)N8)c7cnc(-c8cc(O)cc9ccccc89)c(F)c7n6)C5)CC4)cc3C2=O)C(=O)N1` (stereo partly drawn) [Compound 20], the IC50 in experiment [1], in experiment [6] and in experiment [7] was above 1000 nM in each case.

Consider `CN1C[C@H](N2CCC(C(=O)NCCOCCOc3ccc4c(c3)C(=O)N(C3CCC(=O)NC3=O)C4=O)CC2)C[C@@H]1COc1nc(N2CC3CCC(C2)N3)c2cnc(-c3cc(O)cc4ccccc34)c(F)c2n1` (stereo partly drawn) [Compound 24], for which the IC50 in experiment [1] and in experiment [6] was above 1000 nM in each case.

As for `C#Cc1c(F)ccc2cc(O)cc(-c3nc(OC)c4c(N5CC6CCC(C5)N6CC#N)nc(OCC5(CN6CCN(CC7CCN(c8ccc9c(c8)CN(C8CCC(=O)NC8=O)C9=O)CC7)CC6)CC5)nc4c3F)c12` (stereo not drawn) [Compound 100, 2-(3-(2-((1-((4-((1-(2-(2,6-dioxopiperidin-3-yl)-1-oxoisoindolin-5-yl)piperidin-4-yl)methyl)piperazin-1-yl)methyl)cyclopropyl)methoxy)-7-(8-ethynyl-7-fluoro-3-hydroxynaphthalen-1-yl)-8-fluoro-5-methoxypyrido[4,3-d]pyrimidin-4-yl)-3,8-diazabicyclo[3.2.1]octan-8-yl) acetonitrile formate], the IC50 in experiment [1] and in experiment [2] was below 100 nM in each case. Besides, the Dmax in experiment [3] is above 50%. In addition, the DC50 in experiment [3] was below 100 nM.

For the origin of these results see patent US20260325654A1, “METHODS AND COMPOSITIONS FOR TARGETED PROTEIN DEGRADATION” (Ranok Therapeutics (Hangzhou) Co. Ltd., priority 2023, published 2026).
